The source of these data is US6403586B1, “Pyridazine derivatives and drugs containing the same as the active ingredient” (Kowa Co., Ltd., priority 1998, dated 2002).

Series [1] concerns Interleukin-1β (IL-1β) Production in HL-60 cells. Briefly: Inhibitory activity against interleukin-1β production (Test 1). It counts as cell-based. The note with it: Homo sapiens, 72 h, lipopolysaccharide 10 μg/ml, culturing for 3 days, compared with control without test sample. The method, then: (Inhibitory activity against interleukin-1β production)
HL-60 cells were cultured for 4 days until confluence on RPMI 1640 medium with 10% fetal bovine serum (FBS) added thereto. The medium was centrifuged. The supernatant was discarded, and the cells were then suspended at 1×10^6 cells/me on RPMI 1640 medium with 3% FBS, and lipopolysaccharide was added to give a final concentration of 10 μg/ml. The culture was inoculated at 1 ml/well to a 24-well plate. A test compound was added at 1 μl/well, followed by culturing for 3 days. Three days later, the amount of interleukin-1β in each […] was determined by a comparison in yield with a control to which no test sample was added.

Compound `CCNC(=O)c1cc(-c2ccc(OC)cc2)nn(CC2CC2)c1=O` [Example 66, 2-Cyclopropylmethyl-4-ethylcarbamoyl-6-(4-methoxyphenyl)-2H-pyridazin-3-one] showed a melting point of 136.3 to 136.9 °C. Also, it took 0.11 µM to reach half-maximal inhibition in series [1] (IC50).

In turn, `CNC(=O)C1CC(c2ccc(OC)cc2)=NN(CC(C)C)C1=O` (stereo not drawn) [Example 128, 4,5-dihydro-2-isobutyl-6-(4-methoxyphenyl)-4-methylcarbamoyl-2H-pyridazin-3-one] yielded a melting point of 124.2 to 125 °C. The compound further yielded an IC50 in series [1] of 0.4 µM.

Take `COc1ccc(-c2cc(NC=O)c(=O)n(CC=Cc3ccc(Cl)cc3)n2)cc1` [Example 112, 2-(4-chlorocinnamyl)-4-formylamino-6-(4-methoxyphenyl)-2H-pyridazin-3-one]: the melting point fell in the range of 213 to 213.8 °C. The IC50 in series [1] came out at 0.387 µM.
